Measurements: patent US20260285847A1, “SYMMETRIC AMINOINDOLE-LINKED TRIAZINE FOR A DUAL EFFECT ON ALPHA-SYNUCLEIN AND TAU ISOFORM 2N4R FIBRILLIZATION” (Purdue Research Foundation, priority 2023, published 2026)
“Also recorded” adds a separate entry of the source.

Legend:
alpha-synuclein (α-syn) = molecular target: T1, alpha-synuclein (α-syn) (Homo sapiens, UniProt P37840); assay: Thioflavin T (ThT) fluorescence assay of α-syn fibril formation; type: biochemical; conditions: compound 100 μM
T1 construct: purchased rPeptide
Method: Thioflavin fluorescence assays. Thioflavin fluorescence assays were used to monitor fibril formation of recombinant α-syn, tau isoform 2N4R, treated with control DMSO and different compounds. Kinetics of α-syn fibrillization were performed using thioflavin T (ThT) as published previously.^32′ ^37 The fluorescence emission experiments were performed with the excitation and emission wavelengths set at 440 and 485 nm, respectively, with a Synergy HT multi-mode microplate reader (BioTek, Winooski, VT). Samples were measured in three replicates and the experiments were repeated three times using at least two different stock solutions. For each time point, arbitrary units of fluorescence were calculated from the mean values normalized against the maximum value in each completed assay. All results contained in FIG. 1 were presented as mean±SEM.
FIG. 1. Chemical structure, physicochemical descriptors, and the effect of compounds on alpha-synuclein (α-syn) aggregation measured as fluorescence intensity using ThT assay. TPSA, Log P, and Log D were obtained with SwissADME. BBB and pKa were obtained from the Blood-Brain Barrier Prediction Server (https://www.cbligand.org/BBB/) and Chemaxon, respectively. CNS MPO scores were assessed as published previously, The ThT (%) represent the maximum fluorescence intensity obtained at the plateau phase of the kinetics of fibrillization using 6.25 μM of α-syn. Compounds were tested at 100 μM (molar ratio 1:16). BBB, blood-brain barrier; C log D, calculated distribution coefficient at 7.4; C log P, calculated partition coefficient; CNS MPO, Central Nervous System Multi Parameter Optimization; HBA, Hydrogen Bond Acceptor; HBD, Hydrogen Bond Donor; LR5, Lipinski's rule of five; pKa, negative log of acid dissociation constant; ThT, Thioflavin T; TPSA, Topological polar surface area.

tau isoform 2N4R [1] = molecular target: T2, tau isoform 2N4R (Homo sapiens, UniProt P10636); assay: ThT fluorescence assay of tau isoform 2N4R fibril formation; type: biochemical; conditions: compound 100 μM, tau 2N4R 6 μM, heparin 1.5 μM
T2 construct: made in house; host or cells: E. coli BL21(DE3)
T2 sequence (P10636 1-441 isoform P10636-8): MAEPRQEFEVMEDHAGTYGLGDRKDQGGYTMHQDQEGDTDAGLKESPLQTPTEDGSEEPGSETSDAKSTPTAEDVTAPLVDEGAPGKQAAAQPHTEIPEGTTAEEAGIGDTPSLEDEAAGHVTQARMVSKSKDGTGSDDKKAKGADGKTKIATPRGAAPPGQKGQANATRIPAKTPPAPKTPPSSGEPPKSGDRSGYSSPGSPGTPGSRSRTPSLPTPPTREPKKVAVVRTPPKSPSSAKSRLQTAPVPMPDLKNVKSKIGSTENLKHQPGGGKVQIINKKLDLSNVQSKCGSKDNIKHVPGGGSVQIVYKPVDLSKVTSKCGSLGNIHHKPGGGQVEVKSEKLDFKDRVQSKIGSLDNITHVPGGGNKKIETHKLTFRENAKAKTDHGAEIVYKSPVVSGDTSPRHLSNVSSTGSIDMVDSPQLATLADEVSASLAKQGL
Method: (§1) Chemical and peptide source. DMSO and thioflavin-T (ThT) were purchased from Alfa Aesar (Ward Hill, MA). Procuration of recombinant α-syn was from rPeptide (WatKinsville, GA). The recombinant p-tau isoform 1N4R was prepared as published previously.^31, 36 Concerning the preparation of tau 2N4R, bacterial expression plasmid consisting of the vector pRK172 carrying a cDNA encoding the human Tau 2N4R isoform was a kind gift of Dr. David Eliezer (Weill Cornell Medicine). For protein expression, E. coli BL21(DE3) cells were transformed with the plasmid and grown in LB media supplemented with ampicillin (100 μg/mL). Protein over-expression was induced by the addition of 1 mM IPTG for 4 h at 37° C., and cells were pelleted by centrifugation at 6,000 g for 15 min at 4° C. The cells were resuspended in lysis buffer (20 mM MES, 400 mM NaCl, 0.2 mM MgCl2, 1 mM EGTA, protease inhibitor cocktail (P8340, Sigma Aldrich), 0.25 mg/mL lysozyme, and 1 μg/mL DNase I, pH 6.8) and lysed by a French press cell disruptor at 4° C., and the lysate was boiled for 20 min. Denatured proteins were pelleted by centrifugation at 30,000 g for 30 min at 4° C., and the supernatant was dialyzed overnight against cation exchange buffer (20 mM MES, 50 mM NaCl, 1 mM MgCl2, 1 mM EGTA, 2 mM DTT, 0.1 mM PMSF, pH 6.8). The dialysate was loaded onto a HiPrep SP HP column, and proteins were eluted with a linear gradient ranging from 50 mM to 1 M NaCl. Fractions containing tau isoform 2N4R were pooled, and the resulting protein solution was dialyzed against PBS (pH 7.4) and stored at −80° C.

α-syn [2] = molecular target: T3, α-syn (Homo sapiens, UniProt P37840); assay: PICUP cross-linking assay of α-syn oligomer formation; type: biochemical; conditions: compound 50 μM; high molecular weight oligomers around 50 kDa
T3 construct: purchased rPeptide
Method: PICUP is a technique in which oligomer formation is induced by cross-linking. To induce oligomerization by cross-linking, α-syn (from Rpeptide, LLC) and tau isoform 2N4R were diluted in 10 mM phosphate buffer (pH 7.4) to reach a final concentration of 10 μM. Different compounds were added to the protein solution at a final concentration of 50 μM, resulting in a molar ratio of 1:5. To confirm the gradual effect of compounds on the inhibition of α-syn oligomerization, compounds were tested at final concentration of 3.125, 6.25, 12.5, 25, and 50 μM. The controls consisted of samples without light exposition, without Ru(bpy) or ammonium persulfate, and without compound (i.e., 0.125% DMSO). The cross-linking reaction was initiated by the addition of 2 μL of Ru(bpy) (300 μM final concentration) and 2 μL ammonium persulfate (6 mM final concentration).^32 Samples were irradiated immediately. Light exposure was of a 1 second duration for α-syn and a 3 second duration for tau isoform 2N4R, with a 53 W (120 V) incandescent lamp installed in a homemade dark-box. Each tube contained a final volume of 20 μL. After irradiation, 8.3 μL of Laemmli loading buffer containing 15% 0-mercaptoethanol was immediately added to the solution, followed by incubation at 95° C. for 10 min. The cross-linked samples were separated on a 16% SDS-PAGE gel and visualized by Coomassie blue staining.

tau isoform 2N4R [3] = molecular target: T2, tau isoform 2N4R; assay: PICUP cross-linking assay of tau oligomer formation; type: biochemical; conditions: compound 50 μM; high molecular weight oligomers around 190 kDa
Method: as §1
PICUP is a technique in which oligomer formation is induced by cross-linking. To induce oligomerization by cross-linking, α-syn (from Rpeptide, LLC) and tau isoform 2N4R were diluted in 10 mM phosphate buffer (pH 7.4) to reach a final concentration of 10 μM. Different compounds were added to the protein solution at a final concentration of 50 μM, resulting in a molar ratio of 1:5. […]

α-syn [4] = molecular target: T3, α-syn; assay: Transmission electron microscopy (TEM) of α-syn fibrils; type: biochemical; conditions: protein 60 μM, compound 600 μM (1:10), 24 hours at 37° C.
Method: To confirm the general anti-fibrillar effect of compound 10, transmission electron microscopy (TEM) was used as an orthogonal assay. After incubating recombinant proteins (at 60 μM) with 600 μM compound 10 for 24 hours at 37° C., TEM was utilized to detect fibril formation.^32 A volume of 10 μL was applied on a 400-mesh Formvar-carbon-coated copper grid (Electron Microscopy Sciences, Hatfield, PA). The grids were incubated for 1 minute and washed three times with distilled water. They were carefully air-dried and incubated for 1 minute in a fresh solution of 1% uranyl acetate. Samples were air-dried and observed using a transmission microscope. Visualization of the grids was performed with transmission electron microscopy (JEOL 1400 Flash, Japan). Acquisition of pictures was performed with the following settings: accelerating voltage of 100 kV and magnification of 40k.

tau isoform 2N4R [5] = molecular target: T2, tau isoform 2N4R; assay: TEM of tau isoform 2N4R fibrils; type: biochemical; conditions: protein 60 μM, compound 600 μM (1:10), 24 hours at 37° C.
Method: as §1
To confirm the general anti-fibrillar effect of compound 10, transmission electron microscopy (TEM) was used as an orthogonal assay. After incubating recombinant proteins (at 60 μM) with 600 μM compound 10 for 24 hours at 37° C., TEM was utilized to detect fibril formation.^32 A volume of 10 μL was applied on a 400-mesh Formvar-carbon-coated copper grid (Electron Microscopy Sciences, Hatfield, PA). The grids were incubated for 1 minute and washed three times with distilled water. […]

[6] = tested on: M17D-TR/αS3K::YFP neuroblastoma cells; assay: α-syn inclusion formation in dox-inducible neuroblastoma cells; type: cell-based
Method: The dox-inducible neuroblastoma cell line M17D-TR/αS3K::YFP was used to evaluate the effect of compounds in preventing the formation of inclusion following induction with Dox. Dox-inducible neuroblastoma cells M17D-TR/αS-3K::YFP have been used previously. 96-well plates were used with cellular density of 30,000 cells per well. Compounds were added after 24 h and aS-3K::YFP transgene expression was induced […]. Induction was done by adding 1 μg per mL (final concentration) dox to culture media. Cells were incubated in the Incucyte Zoom 2000 platform (Essen Biosciences) and images (green, bright field) were taken continuously. Endpoint analysis of inclusion formation or growth was performed 48 h after induction (96 h after plating). The Incucyte processing definition ‘Inclusions’ was created as follows: Parameters, Fixed Threshold, Threshold (GCU) 50; Edge Split On, Edge Sensitivity 100; Cleanup, Hole Fill (μm^2): 10, Adjust Size (pixels): 0; Filters, Area (μm^2): max 50, Mean Intensity: min 60, Integrated Intensity: min 2000. […] As described previously for the evaluation of protein expression by SDS-PAGE and Western Blotting in the LiCor system, αS-specific monoclonal antibody 4B12 (Thermofisher, Waltham, MA; 1:1000) and a polyclonal antibody to GAPDH (Sigma-Aldrich, St. Louis, MO, G9545; 1:5000) were used.

tau isoform 2N4R fibrillization (in words) (tau isoform 2N4R [1]) | ThT fluorescence intensity (FI), maximum at the plateau phase of α-syn fibrillization (alpha-synuclein (α-syn); α-syn 6.25 μM (molar ratio 1:16), compared with DMSO control, mean±SEM, 100 µM) [%] | activity at 100 µM (alpha-synuclein (α-syn); α-syn 6.25 μM (molar ratio 1:16), compared with DMSO control, mean±SEM, read-out: ThT fluorescence intensity (FI), maximum at the plateau phase of α-syn fibrillization) [%] | Compound | inhibition of α-syn aggregation / fibril formation (in words) (alpha-synuclein (α-syn); ThT assay) | α-syn oligomer formation (PICUP, in words) (α-syn [2]) | tau oligomer formation (PICUP, in words) (tau isoform 2N4R [3]) | α-syn fibril ultrastructure (TEM) (α-syn [4]) | tau isoform 2N4R fibril ultrastructure (TEM) (tau isoform 2N4R [5]) | α-syn expression levels (Western blot) ([6]; compound 10 μM) | α-syn expression levels (Western blot) ([6]; compound 2.5 and 20 μM) | α-syn inclusion formation (punctate YFP signal, in words) ([6]; compound 7: 2.5 to 20 μM, compound 10: 2.5 to 40 μM, readout 96 h after plating, vs 0.1% DMSO)
failed to reduce tau fibril formation |  |  | c1cc(Oc2ncnc(Oc3cccc4[nH]ccc34)n2)c2cc[nH]c2c1 [Compound 7, 4-{[4-(1H-indol-4-yloxy)-1,3,5-triazin-2-yl]oxy}-1H-indole] | nonexistent anti-fibrillar activity; also recorded: weak effect on fibril formation | did not reduce the formation of α-syn and tau oligomers | did not reduce the formation of α-syn and tau oligomers | packets of fine fibrils with a few spherical structures encountered on the grid | fibrils surrounded by debris admixed with disrupted fibrils | reduced | reduced | very minimal changes in the numbers of inclusion
 | −0.3±0.5 |  | Clc1nc(Nc2ccc3cc[nH]c3c2)nc(Nc2ccc3cc[nH]c3c2)n1 [Compound 24] |  |  |  |  |  |  |  | 
 |  | 21.5 ± 7.9 | c1cc(Nc2nc(Nc3cccc4[nH]ccc34)nc(Nc3cccc4[nH]ccc34)n2)c2cc[nH]c2c1 [Compound 25] |  |  |  | rare short fibrils | medium size needle-shaped fibrils |  |  | 
